From patent US8710040B2, “Pharmaceutical composition comprising gabapentin or an analogue thereof and an α-aminoamide and its analgesic use” (Newron Pharmaceuticals S.p.A., priority 2001, dated 2014)
Read-outs that look alike come from different tables or passages of the source.

Columns and labels:
[1] = test system: monoarthritic rat model of chronic pain induced by complete Freund's adjuvant (CFA); test: Antiallodynic effect (von Frey mechanical allodynia) in the monoarthritic rat model of chronic pain induced by CFA; format: in vivo; settings: for ED50: Rattus norvegicus, po, read-out: ED50 (compound alone); for ED50 (as restated in the formulation example): compound alone, quoted in the 20 mg formulation example; for Interaction with GBP on the antiallodynic effect (ED50mix compared with ED50add or ED50 alone): oral co-administration with GBP at fixed ratios
Procedure: This procedure involves the determination of the total amount in the mixture that is required to produce a specified synergistic antiallodynic effect at the 50% dose level (ED50mix) and the corresponding total amount that would be expected under simple additivity (ED50add). Where it is established that ED50mix<ED50add for a specific fixed ratio, then the composition has a synergistic antiallodynic effect. Both the quantities ED50mix and ED50add are random variables. ED50mix was determined from the dose-response curve for a specific fixed ratio of the components; ED50add was calculated from the ED50 values for the individual drugs.
Procedure for Testing the Antiallodynic Effect of the Composition of the Invention
Adult male. Wistar rats (body weight 175-200 g, Harlan-Nossan, Italy) were housed in separate cages with free access to water and standard rat chow at a constant temperature (22±0.5° C.) and relative humidity (60-70%), with a 6.00 am to 6.00 pm light-dark period.
The inflammation was induced in rats by an intra-plantar injection of complete Freund's adjuvant (CFA, Sigma-100 μl) into left hind paw containing heat-killed and dried Mycobacterium tuberculosis in a mixture of paraffin oil and mannide monooleate as emulsifying agent. A group of control animal were injected with 100 μl of mineral oil, the incomplete Freund's adjuvant (IFA, Sigma).
Each animal was allowed to develop the arthritis over an 8-9 day period of before testing.
Rats were placed in individual plastic boxes on a mesh metal floor and allowed to acclimatize for about 30 min. A series of calibrated von Frey hair with logarithmically incremental stiffness (from 2.83 to 5.88×Log10 of the bending force, g) were applied to the paw with the up-down method. Each hair was presented perpendicularly against the paw, with sufficient force to cause slight bending, and held approximately 2-3 sec. The filament was recorded when a positive response was noted (paw withdrawn, licking or shaking).
The antiallodynic effect was expressed as % MPE (Maximal Possible Effect) at 2 h post-dosing.
The rats were all dosed orally with various doses of an α-aminoamide alone, GBP alone, combined doses of an α-aminoamide and GBP or vehicle. The dosing volume was 2 ml/kg. The dosing materials were all prepared in the vehicle, (distilled water); drug weights were calculated as the free base.
Data are presented as mean of 4/6 animals per group/dose.
The ED50 was defined as the dose producing 50% reversal of mechanical hyperalgesia at 2 h after treatment. An experimental ED50 and 95% confidence intervals (CI) were calculated for each compound alone from the linear regressions fitting the experimental data according to the equation y=a+bx.
The different α-aminoamides were then combined with GBP at different ratios in relation to their respective ED50 previously calculated (not limiting examples of the ratios are 1:1; 1:3; 1:9 and respectively 1:1, 3:1 and 9:1 ratios) for the evaluation of the synergic effect.
Multiple (typically 4) doses of each selected ratio were then studied orally for evaluating the synergic effect of the combination.
Each rat received only one treatment.

[2] = Rat Rotarod test (motor impairment and ataxia); settings: in vivo, po, p.o. at 2 hours, dose causing 50% of the animals to fall from the roller, read-out: TD50 (compound alone)
Procedure: The Rotarod test is an established method used as predictive of CNS-related side effects in humans, and in particular motor impairment and ataxia.
The different α-aminoamides were then combined with GBP at different ratios in relation to their respective TD50 previously calculated (a non limiting example of the ratios is the 1:1 ratio) for the evaluation of the possible synergic effect. Data are presented as mean of 8/10 animals per group/dose.
The test was performed 120 min after drug administration.

[3] = 2 h after single administration, dose producing 50% reversal of mechanical hyperalgesia, CFA rats

Compound	ED50 [1, 3] [mg/kg]	ED50 (as restated in the formulation example) [1] [mg]	Interaction with GBP on the antiallodynic effect (ED50mix compared with ED50add or ED50 alone) [1]	TD50 at 120 min [2] [mg/kg]	ED50 ([1]; 2 h) [mg/kg]
C[C@H](NCc1ccc(OCc2ccccc2F)cc1)C(N)=O [NW-1029, (S)-(+)-2-[4-(2-fluorobenzyloxy)benzylamino]propanamide]	0.82	0.82	synergic to GBP	470	–
NC(=O)NN=Cc1ccc(Oc2ccc(F)cc2)cc1 [4-(4′-fluoro-phenoxy)benzaldehyde semicarbazone, reference compound]	14.5	–	–	–	–
CNC(=O)[C@@H](Cc1ccccc1)NCc1ccc(OCc2ccccc2)cc1 [NW-1037, (R)-(−)-2-[4-benzyloxybenzylamino]-3-phenyl-N-methylpropanamide]	3.45	–	synergic to GBP	–	–
CNC(=O)[C@H](C)NCc1ccc(OCc2cccc(F)c2)cc1 [NW-1043, (S)-(+)-2-[4-(3-fluorobenzyloxy)-benzylamino]-N-methyl-propanamide]	7.05	–	synergic to GBP	–	–
NCC1(CC(=O)O)CCCCC1 [GBP, 1-(aminomethyl)cyclohexaneacetic acid, reference compound]	–	12.40	–	430	12.4
